16 molecules from patent US11530237B2, “Compositions and methods for treating CNS disorders” (Sage Therapeutics, Inc., priority 2014, dated 2022) can be followed below.

Test [1] addresses [35S]-TBPS binding, rat brain cortical membranes. Briefly: Steroid inhibition of TBPS binding ([35S]-TBPS radioligand displacement). Particulars: 3 nM [35S]-TBPS, 5 μM GABA. How it is done:
TBPS binding assays using rat brain cortical membranes in the presence of 5 μM GABA has been described (Gee et al, J. Pharmacol. Exp. Then 1987, 241, 346-353; Hawkinson et al, Mol. Pharmacol. 1994, 46, 977-985; Lewin, A. H et al., Mol. Pharmacol. 1989, 35, 189-194).
Briefly, cortices are rapidly removed following decapitation of carbon dioxide-anesthetized Sprague-Dawley rats (200-250 g). The cortices are homogenized in 10 volumes of […] using a glass/teflon homogenizer and centrifuged at 1500×g for 10 min at 4° C. The resultant supernatants are centrifuged at 10,000×g for 20 min at 4° C. to obtain the P2 pellets. The P2 pellets are resuspended in 200 mM NaCl/50 mM Na—K phosphate pH 7.4 buffer and centrifuged at 10,000×g for 10 min at 4° C. This washing procedure is repeated twice and the pellets are resuspended in 10 volumes of buffer. Aliquots (100 μL) of the membrane suspensions are incubated with 3 nM [^35S]-TBPS and 5 μL aliquots of test drug dissolved in dimethyl sulfoxide (DMSO) (final 0.5%) in the presence of 5 μM GABA. The incubation is brought to a final volume of 1.0 mL with buffer. […] Following a 90 min incubation at room temp, the assays are terminated by filtration through glass fiber filters (Schleicher and Schuell No. 32) using a cell harvester (Braudel) and rinsed three times with ice-cold buffer. Filter bound radioactivity is measured by liquid scintillation spectrometry. Non-linear curve fitting of the overall data for each drug averaged for each concentration is done using Prism (GraphPad).
Various compounds are or can be screened to determine their potential as modulators of [^35S]-TBPS binding in vitro. These assays are or can be performed in accordance with the above discussed procedures.
A general note: In a radioligand displacement assay an active substance lowers the binding of a labelled ligand.

The target in test [2] is α1β2γ2 GABAA receptors (Homo sapiens (Human), UniProt P14867+P47870). The test can be described thus: Patch clamp electrophysiology (QPatch) of recombinant α1β2γ2 GABAA receptors in LTK cells. Type of test: cell-based. As to conditions: 10 μM test article, GABA EC20 = 2 μM; for Emax at 10 µM: read-out: GABA (α1β2γ2) Qpatch in Ltk, % efficacy at 10 μM. How it is done:
(§1) Cellular electrophysiology is used to measure the pharmacological properties of our GABAA receptor modulators in heterologous cell systems. Each compound is tested for its ability to affect GABA mediated currents at a suhmaximal agonist dose (GABA EC20=2 μM). LTK cells are stably transfected with the α1β2γ2 subunits of the GABA receptor and CHO cells are transiently transfected with the α4β3δ subunits via the Lipofecatamine method. Cells were passaged at a confluence of about 50-80% and then seeded onto 35 mm sterile culture dishes containing 2 ml culture complete medium without antibiotics or antimycotics. Confluent clusters of cells are electrically coupled (Pritchett et al., Science, 1988, 242, 1306-1308). Because responses in distant cells are not adequately voltage clamped and because of uncertainties about the extent of coupling (Verdoom et al., Neuron 1990, 4, 919-928), cells were cultivated at a density that enables the recording of single cells (without visible connections to other cells).
(§2) Whole cell currents were measured with HEKA EPC-10 amplifiers using PatchMaster software or by using the high throughput QPatch platform (Sophion). Bath solution for all experiments contained (in mM): NaCl 137 mM, KCl 4 mM, CaCl2 1.8 mM, MgCl2 1 mM, HEPES 10 mM, D-Glucose 10 mM, pH (NaOH) 7.4. In some cases 0.005% cremophor was also added. Intracellular (pipette) solution contained: KCl 130 mM, MgCl2 1 mM, Mg-ATP 5 mM, HEPES 10 mM, EGTA 5 mM, pH 7.2. During experiments, cells and solutions were maintained at room temperature (19° C.-30° C.). For manual patch clamp recordings, cell culture dishes were placed on the dish holder of the microscope and continuously perfused (1 ml/min) with bath solution. After formation of a Gigaohm seal between the patch electrodes and the cell (-ipette resistance range: 2.5 MΩ-6.0 MΩ; seal resistance range:>1 GΩ) the cell membrane across the pipette tip was ruptured to assure electrical access to the cell interior (whole-cell patch-configuration). For experiments using the QPatch system, cells were transferred as suspension to the QPatch system in the bath solution and automated whole cell recordings were performed.
(§3) Cells were voltage clamped at a holding potential of −80 mV. For the analysis of test articles, GABA receptors were stimulated by 2 μM GABA after sequential pre-incubation of increasing concentrations of the test article. Pre-incubation duration was 30 s and the duration of the GABA stimulus was 2s. Test articles were dissolved in DMSO to form stock solutions (10 mM). Test articles were diluted to 0.01, 0.1, 1, and 10 μM in bath solution. All concentrations of test articles were tested on each cell. The relative percentage potentiation was defined as the peak amplitude in response to GABA EC20 in the presence of the test article divided by the peak amplitude in response to GABA EC20 alone, multiplied by 100. For Table 2. GABAA receptors α1β2γ2 and α4β3δ% efficacy: “A” 10-100, “B”>100-500, “C”>500; D indicates the data is not available or has not been determined.
For orientation: The patch-clamp technique gives a direct electrical read-out from membranes.

The target of test [3] is α4β3δ GABAA receptors (Homo sapiens (Human), UniProt P28472+P48169). Briefly: Patch clamp electrophysiology (manual patch) of recombinant α4β3δ GABAA receptors in CHO cells. Type of test: cell-based. Particulars: 10 μM test article, GABA EC20 = 2 μM, read-out: GABA (α4β3δ) Manual patch in CHO, % efficacy at 10 μM. How it is done: as §1, §2, §3

As a reminder, the IC50 is the point on the concentration scale where inhibition reaches its midpoint. Lower therefore signals greater potency in that assay. `CC(=O)Nc1cnn(CC(=O)[C@H]2CC[C@H]3[C@@H]4CC[C@H]5C[C@](C)(O)CC[C@]5(C)[C@H]4CC[C@]23C)c1` [Compound 153, N-(1-(2-((3R,5S,8R,9S,10S,13S,14S,17S)-3-hydroxy-3,10,13-trimethylhexadecahydro-1H-cyclopenta[a]phenanthren-17-yl)-2-oxoethyl)-1H-pyrazol-4-yl)acetamide] had a half-inhibitory concentration (IC50) in test [1] of 100 to 500 nM. For the same molecule, in test [2], the Emax at 10 µM lay within 100 to 500%.
In test [1], `C[C@@]1(O)CC[C@@]2(C)[C@@H](CC[C@@H]3[C@@H]2CC[C@]2(C)[C@@H](C(=O)Cn4cc(N)cn4)CC[C@@H]32)C1` [Compound 152, 2-(4-amino-1H-pyrazol-1-yl)-1-((3R,5S,8R,9S,10S,13S,14S,17S)-3-hydroxy-3,10,13-trimethylhexadecahydro-1H-cyclopenta[a]phenanthren-17-yl)ethanone] registered an IC50 of 100 to 500 nM. Besides, in test [2], the Emax at 10 µM was 100 to 500%.
`C[C@@]1(O)CC[C@@]2(C)[C@@H](CC[C@@H]3[C@@H]2CC[C@]2(C)[C@@H](C(=O)Cn4cnc(C#N)c4)CC[C@@H]32)C1` [Compound 138] showed an IC50 in test [1] of 100 to 500 nM. For the same molecule, the “GABA (α1β2γ2) Qpatch in Ltk, % efficacy at 10 μM” value in test [2] is “C (>500)”.
In turn, `C[C@@]1(O)CC[C@@]2(C)[C@@H](CC[C@@H]3[C@@H]2CC[C@]2(C)[C@@H](C(=O)Cn4nc5ccc(F)c(F)c5n4)CC[C@@H]32)C1` [Compound 108, 2-(4,5-difluoro-2H-benzo[d][1,2,3]triazol-2-yl)-1-((3R,5S,8R,9S,10S,13S,14S,17S)-3-hydroxy-3,10,13-trimethylhexadecahydro-1H-cyclopenta[a]phenanthren-17-yl)ethanone] yielded an IC50 in test [1] of 10 to 50 nM. For the same molecule, in test [2], the Emax at 10 µM is 100 to 500%.
`C[C@@]1(O)CC[C@@]2(C)[C@@H](CC[C@@H]3[C@@H]2CC[C@]2(C)[C@@H](C(=O)Cn4nc5cc(F)cc(F)c5n4)CC[C@@H]32)C1` [Compound 234]: the Emax at 10 µM in test [3] lay in the range of 100 to 500%.
Regarding `C[C@@]1(O)CC[C@@]2(C)[C@@H](CC[C@@H]3[C@@H]2CC[C@]2(C)[C@@H](C(=O)Cn4nnc5ccc(Cl)c(F)c54)CC[C@@H]32)C1` [Compound 113], the IC50 in test [1] lay within 10 to 50 nM. Besides, in test [2], the “GABA (α1β2γ2) Qpatch in Ltk, % efficacy at 10 μM” value is on record as “B (>100-500)”.
Regarding `C[C@H](C(=O)[C@H]1CC[C@H]2[C@@H]3CC[C@H]4C[C@](C)(O)CC[C@]4(C)[C@H]3CC[C@]12C)n1ccnn1` [Compound 92, (R)-1-((3R,5S,8R,9S,10S,13S,14S,17S)-3-hydroxy-3,10,13-trimethylhexadecahydro-1H-cyclopenta[a]phenanthren-17-yl)-2-(1H-1,2,3-triazol-1-yl)propan-1-one], in test [1], the IC50 is greater than 500 nM.
The molecule `C[C@@]1(O)CC[C@@]2(C)[C@@H](CC[C@@H]3[C@@H]2CC[C@]2(C)[C@@H](C(=O)Cn4cc5ccc(F)cc5n4)CC[C@@H]32)C1` [Compound 237] registered a half-inhibitory concentration (IC50) in test [1] of 10 to 50 nM.
In the case of `C[C@@H](C(=O)[C@H]1CC[C@H]2[C@@H]3CC[C@H]4C[C@](C)(O)CC[C@]4(C)[C@H]3CC[C@]12C)n1nnc2ccccc21` [Compound 101, (S)-2-(1H-benzo[d][1,2,3]triazol-1-yl)-1-((3R,5S,8R,9S,10S,13S,14S,17S)-3-hydroxy-3,10,13-trimethylhexadecahydro-1H-cyclopenta[a]phenanthren-17-yl)propan-1-one], the IC50 in test [1] lay within 50 to 100 nM.
Regarding `CC(C)(C(=O)[C@H]1CC[C@H]2[C@@H]3CC[C@H]4C[C@](C)(O)CC[C@]4(C)[C@H]3CC[C@]12C)n1nnc2ccccc21` [Compound 102, 2-(1H-benzo[d][1,2,3]triazol-1-yl)-1-((3R,5S,8R,9S,10S,13S,14S,17S)-3-hydroxy-3,10,13-trimethylhexadecahydro-1H-cyclopenta[a]phenanthren-17-yl)-2-methylpropan-1-one], the IC50 in test [1] is greater than 500 nM.
In test [1], `C[C@@]1(O)CC[C@@]2(C)[C@@H](CC[C@@H]3[C@@H]2CC[C@]2(C)[C@@H](C(=O)Cc4cccc(F)c4)CC[C@@H]32)C1` [Compound 257] had a 50% inhibitory concentration (IC50) of 100 to 500 nM.
`CC(C(=O)[C@H]1CC[C@H]2[C@@H]3CC[C@@H]4C[C@](C)(O)CC[C@]4(C)[C@H]3CC[C@]12C)n1nc2ccccc2n1` (stereo in doubt) [Compound 61, (S)-2-(2H-benzo[d][1,2,3]triazol-2-yl)-1-((3R,5R,8R,9S,10S,13S,14S,17S)-3-hydroxy-3,10,13-trimethylhexadecahydro-1H-cyclopenta[a]phenanthren-17-yl)propan-1-one] displayed an IC50 in test [1] of 100 to 500 nM.
`C[C@H](C(=O)[C@H]1CC[C@H]2[C@@H]3CC[C@@H]4C[C@](C)(O)CC[C@]4(C)[C@H]3CC[C@]12C)n1cc(C#N)cn1` [Compound 72, 1-((R)-1-((3R,5R, 8R, 9S, 10S, 13S, 14S, 17S)-3-hydroxy-3,10,13-trimethylhexadecahydro-1H-cyclopenta[a]phenanthren-17-yl)-1-oxopropan-2-yl)-1H-pyrazole-4-carbonitrile]: the IC50 in test [1] was 10 to 50 nM.
Turning to `C[C@H](C(=O)[C@H]1CC[C@H]2[C@@H]3CC[C@H]4C[C@](C)(O)CC[C@]4(C)[C@H]3CC[C@]12C)n1nnc2ccccc21` [Compound 100, (R)-2-(1H-benzo[d][1,2,3]triazol-1-yl)-1-((3R,5S,8R,9S,10S,13S,14S,17S)-3-hydroxy-3,10,13-trimethylhexadecahydro-1H-cyclopenta[a]phenanthren-17-yl)propan-1-one], in test [1], the half-maximal inhibitory concentration (IC50) is greater than 500 nM.
`C[C@@H](C(=O)[C@H]1CC[C@H]2[C@@H]3CC[C@@H]4C[C@](C)(O)CC[C@]4(C)[C@H]3CC[C@]12C)n1nccn1` [Compound 57, (S)-1-((3R,5R,8R,9S,10S,13S,14S,17S)-3-hydroxy-3,10,13-trimethylhexadecahydro-1H-cyclopenta[a]phenanthren-17-yl)-2-(2H-1,2,3-triazol-2-yl)propan-1-one] came in with an IC50 in test [1] of 100 to 500 nM.
For `C[C@H](C(=O)[C@H]1CC[C@H]2[C@@H]3CC[C@H]4C[C@](C)(O)CC[C@]4(C)[C@H]3CC[C@]12C)n1nccn1` [Compound 90, (R)-1-((3R,5S,8R,9S,10S,13S,14S,17S)-3-hydroxy-3,10,13-trimethylhexadecahydro-1H-cyclopenta[a]phenanthren-17-yl)-2-(2H-1,2,3-triazol-2-yl)propan-1-one], the IC50 in test [1] is greater than 500 nM.
